Data from US20230219931A1, “FUSED HETEROARYL HYDROXAMATES AS STING AGONISTS” (BiSiChem Co., Ltd., priority 2022, published 2023).
Where a name gives a salt, the structure may show the parent alone.

What follows are molecules tested on ISG reporter activity in THP1-Dual cell (assay: ISG reporter assay). Conditions: Homo sapiens, compounds incubated with cells for 24 hours, QUANTI-Blue, absorbance at 655 nm.
Assay type: cell-based
Description: [Worded in the source for another cell line; this cell line is reported under the same test.] THP1-Blue cells (cat. no. thp-isg) were purchased from InvivoGen (Sandiago, USA). Penicillin—streptomycin (cat. no. L0022-100), Fetal Bovine Serum (FBS) (cat. no. S1480-500) and Roswell Park Memorial Institute (RPMI) 1640 media (cat. L0498-500) were purchased from biowest (Nuaille, France). Zeocin (cat. no. ant-zn-OS) and Normocin (cat. no. ant-nr-1) were purchased from InvivoGen (Sandiago, USA). QUANTI-Blue™ (cat. no. rep-qbs) was purchased from InvivoGen. THP1-Blue cells were cultured in RPMI 1640 medium with 10% heat-inactivated FBS, 100 μg/ml Normocin, 100 μg/ml Zeocin and 100 U/ml-100 μg/ml penicillin-streptomycin. The cells were incubated at 37° C. in a humidified atmosphere of 5% CO2.
THP1-Blue cells were seeded at 5×10^4 cells/well (90 μl/well). 10 μl of compounds were added to the cells and incubated for 24 hours. 20 μl of cell culture supernatant was dispensed new 96-well plate (cat. no. 30096) with 180 μl of QUANTI-Blue™ solution and incubated for 15 minutes at 37° C. The absorbance was measured by Varioskan Lux (Thermofisher Scientific, USA) at 655 nm.

| Structure (SMILES) | EC50 [µM] |
| --- | --- |
| CCn1nc(C)cc1C(=O)Nc1nc2cc(C(N)=O)cc(OC)c2n1C/C=C/Cn1c(NC(=O)c2cc(C)nn2CC)nc2cc(C(N)=O)cc(OCC#CC3CCN(S(=O)(=O)N4CCCC4)CC3)c21 [Example 26, (E)-1-(4-(5-carbamoyl-2-(1-ethyl-3-methyl-1H-pyrazole-5-carboxamido)-7-((3-(1-(pyrrolidin-1-ylsulfonyl)piperidin-4-yl)prop-2-yn-1-yl)oxy)-1H-benzo[d]imidazol-1-yl)but-2-en-1-yl)-2-(1-ethyl-3-methyl-1H-pyrazole-5-carboxamido)-7-methoxy-1H-benzo[d]imidazole-5-carboxamide] | < 0.05 |
| CCn1nc(C)cc1C(=O)Nc1nc2cc(C(N)=O)cc(OC)c2n1C/C=C/Cn1c(NC(=O)c2cc(C)nn2CC)nc2cc(C(N)=O)cc(OCC#CC3CCN(S(=O)(=O)N4CCOCC4)CC3)c21 [Example 27, (E)-1-(4-(5-carbamoyl-2-(1-ethyl-3-methyl-1H-pyrazole-5-carboxamido)-7-((3-(1-(morpholinosulfonyl)piperidin-4-yl)prop-2-yn-1-yl)oxy)-1H-benzo[d]imidazol-1-yl)but-2-en-1-yl)-2-(1-ethyl-3-methyl-1H-pyrazole-5-carboxamido)-7-methoxy-1H-benzo[d]imidazole-5-carboxamide] | < 0.05 |
| CCn1nc(C)cc1C(=O)Nc1nc2cc(C(N)=O)cc(OC)c2n1C/C=C/Cn1c(NC(=O)c2cc(C)nn2CC)nc2cc(C(N)=O)cc(OCC#CC3CCN(S(=O)(=O)N4CCN(C(=O)OC(C)(C)C)CC4)CC3)c21 [Example 28, tert-butyl (E)-4-((4-(3-((5-carbamoyl-1-(4-(5-carbamoyl-2-(1-ethyl-3-methyl-1H-pyrazole-5-carboxamido)-7-methoxy-1H-benzo[d]imidazol-1-yl)but-2-en-1-yl)-2-(1-ethyl-3-methyl-1H-pyrazole-5-carboxamido)-1H-benzo[d]imidazol-7-yl)oxy)prop-1-yn-1-yl)piperidin-1-yl)sulfonyl)piperazine-1-carboxylate] | < 0.05 |
| CCn1nc(C)cc1C(=O)Nc1nc2cc(C(N)=O)cc(OC)c2n1C/C=C/Cn1c(NC(=O)c2cc(C)nn2CC)nc2cc(C(N)=O)cc(OCC#CC3CCN(S(=O)(=O)N4CCNCC4)CC3)c21 [Example 29, (E)-1-(4-(5-carbamoyl-2-(1-ethyl-3-methyl-1H-pyrazole-5-carboxamido)-7-((3-(1-(piperazin-1-ylsulfonyl)piperidin-4-yl)prop-2-yn-1-yl)oxy)-1H-benzo[d]imidazol-1-yl)but-2-en-1-yl)-2-(1-ethyl-3-methyl-1H-pyrazole-5-carboxamido)-7-methoxy-1H-benzo[d]imidazole-5-carboxamide hydrochloride] | < 0.05 |
| CCn1nc(C)cc1C(=O)Nc1nc2cc(C(N)=O)cc(OC)c2n1C/C=C/Cn1c(NC(=O)c2cc(C)nn2CC)nc2cc(C(N)=O)cc(OCC#CC3CN(C(=O)OC(C)(C)C)C3)c21 [Example 30, tert-butyl (E)-3-(3-((5-carbamoyl-1-(4-(5-carbamoyl-2-(1-ethyl-3-methyl-1H-pyrazole-5-carboxamido)-7-methoxy-1H-benzo[d]imidazol-1-yl)but-2-en-1-yl)-2-(1-ethyl-3-methyl-1H-pyrazole-5-carboxamido)-1H-benzo[d]imidazol-7-yl)oxy)prop-1-yn-1-yl)azetidine-1-carboxylate] | < 0.05 |
| CCn1nc(C)cc1C(=O)Nc1nc2cc(C(N)=O)cc(OC)c2n1C/C=C/Cn1c(NC(=O)c2cc(C)nn2CC)nc2cc(C(N)=O)cc(OCC#CC3CCN(C(=O)OC(C)(C)C)C3)c21 (stereo not drawn) [Example 31, tert-butyl (E)-3-(3-((5-carbamoyl-1-(4-(5-carbamoyl-2-(1-ethyl-3-methyl-1H-pyrazole-5-carboxamido)-7-methoxy-1H-benzo[d]imidazol-1-yl)but-2-en-1-yl)-2-(1-ethyl-3-methyl-1H-pyrazole-5-carboxamido)-1H-benzo[d]imidazol-7-yl)oxy)prop-1-yn-1-yl)pyrrolidine-1-carboxylate] | < 0.05 |
| CCn1nc(C)cc1C(=O)Nc1nc2cc(C(N)=O)cc(OC)c2n1C/C=C/Cn1c(NC(=O)c2cc(C)nn2CC)nc2cc(C(N)=O)cc(OCC#CC3CCCN(C(=O)OC(C)(C)C)C3)c21 (stereo not drawn) [Example 32, tert-butyl (E)-3-(3-((5-carbamoyl-1-(4-(5-carbamoyl-2-(1-ethyl-3-methyl-1H-pyrazole-5-carboxamido)-7-methoxy-1H-benzo[d]imidazol-1-yl)but-2-en-1-yl)-2-(1-ethyl-3-methyl-1H-pyrazole-5-carboxamido)-1H-benzo[d]imidazol-7-yl)oxy)prop-1-yn-1-yl)piperidine-1-carboxylate] | < 0.05 |

The next lines start with the values.

| EC50 [µM] | Structure (SMILES) |
| --- | --- |
| > 0.5 | CCn1nc(C)cc1C(=O)Nc1nc2cc(C(=O)NOC)cc(OC)c2n1C/C=C/Cn1c(NC(=O)c2cc(C)nn2CC)nc2cc(C(N)=O)cc(OCC#CC(C)(C)O)c21 [Example 33, (E)-1-(4-(5-carbamoyl-2-(1-ethyl-3-methyl-1H-pyrazole-5-carboxamido)-7-((4-hydroxy-4-methylpent-2-yn-1-yl)oxy)-1H-benzo[d]imidazol-1-yl)but-2-en-1-yl)-2-(1-ethyl-3-methyl-1H-pyrazole-5-carboxamido)-N,7-dimethoxy-1H-benzo[d]imidazole-5-carboxamide] |
| < 0.05 | CCn1nc(C)cc1C(=O)Nc1nc2cc(C(N)=O)cc(OC)c2n1C/C=C/Cn1c(NC(=O)c2cc(C)nn2CC)nc2cc(C(N)=O)cc(OCC#CC3CCN(C(=O)OCCN(C)C)CC3)c21 [Example 34, 2-(dimethylamino)ethyl (E)-4-(3-((5-carbamoyl-1-(4-(5-carbamoyl-2-(1-ethyl-3-methyl-1H-pyrazole-5-carboxamido)-7-methoxy-1H-benzo[d]imidazol-1-yl)but-2-en-1-yl)-2-(1-ethyl-3-methyl-1H-pyrazole-5-carboxamido)-1H-benzo[d]imidazol-7-yl)oxy)prop-1-yn-1-yl)piperidine-1-carboxylate] |
| 0.05 to 0.5 | CCn1nc(C)cc1C(=O)Nc1nc2cc(C(=O)NOC)cc(OC)c2n1C/C=C/Cn1c(NC(=O)c2cc(C)nn2CC)nc2cc(C(N)=O)cc(OCC#CCN3CCN(C(=O)OC(C)(C)C)CC3)c21 [Example 36, tert-butyl (E)-4-(4-((5-carbamoyl-2-(1-ethyl-3-methyl-1H-pyrazole-5-carboxamido)-1-(4-(2-(1-ethyl-3-methyl-1H-pyrazole-5-carboxamido)-7-methoxy-5-(methoxycarbamoyl)-1H-benzo[d]imidazol-1-yl)but-2-en-1-yl)-1H-benzo[d]imidazol-7-yl)oxy)but-2-yn-1-yl)piperazine-1-carboxylate] |
| < 0.05 | CCn1nc(C)cc1C(=O)Nc1nc2cc(C(N)=O)cc(OC)c2n1C/C=C/Cn1c(NC(=O)c2cc(C)nn2CC)nc2cc(C(N)=O)cc(OCC#CCN3CCN(C(=O)OC(C)(C)C)CC3)c21 [Example 37] |
| > 0.5 | CCn1nc(C)cc1C(=O)Nc1nc2cc(C(=O)NOC)cc(OC)c2n1C/C=C/Cn1c(NC(=O)c2cc(C)nn2CC)nc2cc(C(N)=O)cc(OCC#CCN3CCN(C(=O)C(C)C)CC3)c21 [Example 39, (E)-1-(4-(5-carbamoyl-2-(1-ethyl-3-methyl-1H-pyrazole-5-carboxamido)-7-((4-(4-isobutyrylpiperazin-1-yl)but-2-yn-1-yl)oxy)-1H-benzo[d]imidazol-1-yl)but-2-en-1-yl)-2-(1-ethyl-3-methyl-1H-pyrazole-5-carboxamido)-N,7-dimethoxy-1H-benzo[d]imidazole-5-carboxamide] |
| 0.05 to 0.5 | CCn1nc(C)cc1C(=O)Nc1nc2cc(C(=O)NOC)cc(OC)c2n1C/C=C/Cn1c(NC(=O)c2cc(C)nn2CC)nc2cc(C(N)=O)cc(OCC#CCN3CCOCC3)c21 [Example 40, (E)-1-(4-(5-carbamoyl-2-(1-ethyl-3-methyl-1H-pyrazole-5-carboxamido)-7-((4-morpholinobut-2-yn-1-yl)oxy)-1H-benzo[d]imidazol-1-yl)but-2-en-1-yl)-2-(1-ethyl-3-methyl-1H-pyrazole-5-carboxamido)-N,7-dimethoxy-1H-benzo[d]imidazole-5-carboxamide] |
| < 0.05 | CCn1nc(C)cc1C(=O)Nc1nc2cc(C(N)=O)cc(OC)c2n1C/C=C/Cn1c(NC(=O)c2cc(C)nn2CC)nc2cc(C(N)=O)cc(OCC#CC(C)(C)N3CCN(C(=O)OC(C)(C)C)CC3)c21 [Example 41, tert-butyl (E)-4-(5-((5-carbamoyl-1-(4-(5-carbamoyl-2-(1-ethyl-3-methyl-1H-pyrazole-5-carboxamido)-7-methoxy-1H-benzo[d]imidazol-1-yl)but-2-en-1-yl)-2-(1-ethyl-3-methyl-1H-pyrazole-5-carboxamido)-1H-benzo[d]imidazol-7-yl)oxy)-2-methylpent-3-yn-2-yl)piperazine-1-carboxylate] |
| < 0.05 | CCn1nc(C)cc1C(=O)Nc1nc2cc(C(N)=O)cc(OC)c2n1C/C=C/Cn1c(NC(=O)c2cc(C)nn2CC)nc2cc(C(N)=O)cc(OCC#CCC3CCN(C(=O)OC(C)(C)C)CC3)c21 [Example 42, tert-butyl (E)-4-(4-((5-carbamoyl-1-(4-(5-carbamoyl-2-(1-ethyl-3-methyl-1H-pyrazole-5-carboxamido)-7-methoxy-1H-benzo[d]imidazol-1-yl)but-2-en-1-yl)-2-(1-ethyl-3-methyl-1H-pyrazole-5-carboxamido)-1H-benzo[d]imidazol-7-yl)oxy)but-2-yn-1-yl)piperidine-1-carboxylate] |
